Results from patent publication US12070031B2 (priority 2020, dated 2024).
Structures can show the parent of a compound that is named as a salt.

Legend:
[1] = tested on: tomato plants (Solanum lycopersicum); assay: Phytotoxicity after foliar application; type: in vivo; set-up: key to Phytotoxicity, Tomato sp.: No toxicity (−); symptoms appear on less than 5% of the leaves was rated as minimal (+); 5 to 50% was rated as moderate (++); above 50% was rated as severe (+++); details: for Phytotoxicity, Tomato sp.: foliar, 72 h
Method: The phytotoxicity of the ZnNP adjuvant with and without streptomycin was tested on tomato plants (Solanum lycopersicum, model fruit plant, 11 cm tall) obtained from Home Depot. The ZnNP treatments were applied directly on plant leaves (foliar application) using a hand-held sprayer until excess liquid starts dripping. Foliar application was conducted at 8:00 a.m. in a greenhouse setting to simulate field conditions. Treated plants were then placed in a growth chamber, Panasonic environmental test chamber (model MLR-352H) with summer settings (34° C., 60-80% RH). Phytotoxicity was evaluated 72 h post application. Digital photographs of treated leaves were taken for the visual assessment (phenotypic) plant tissue damage. Parallel treatments were done with copper sulfate at 1000 μg/mL (positive control) and DI water (untreated control, UTC) to compare phytotoxicity level with the ZnNP treatments. The appearance of brown necrotic spots, chlorosis, and necrosis on the leaves is indicative of plant tissue damage (i.e. phytotoxicity). Phytotoxicity was rated as follows: No toxicity (−), symptoms appear on less than 5% of the leaves was rated as minimal (+), 5 to 50% was rated as moderate (++), and above 50% was rated as severe (+++). Phytotoxicity studies were carried out in triplicate for each treatment and concentration.

P. syringae = assay: MIC by broth microdilution (CLSI) with resazurin; type: cell-based, Pseudomonas syringae
Method: (§1) The antimicrobial efficacy of the ZnNP-Strep and controls were evaluated by the antimicrobial assay methods as previously described. Briefly, Microplate Alamar Blue Assay (MABA) was performed to initially screen the antimicrobial efficacy of the NPs. Then, the minimum inhibitory concentration (MIC) was determined by broth microdilution method in accordance with the guidelines of the Clinical and Laboratory Standards Institute (CLSI). As per the CLSI requirements, from a starter culture of 0.5 McFarland Standard, 5×10^5 CFU/well was added to all the wells. […] The accuracy of the MIC determination was improved by adding 10 μL of resazurin dye (0.0125%, w/v) per 100 μL well volume and observing color changes (from blue to pink for live organisms).

X. alfalfae [2] = assay: MIC by broth microdilution (CLSI) with resazurin; type: cell-based, Xanthomonas alfalfae subsp. citrumelonis
Method: as §1

E. coli = assay: MIC by broth microdilution (CLSI) with resazurin; type: cell-based, Escherichia coli
Method: as §1

X. alfalfae [3] = assay: MBC by CFU plating after dialysis; type: cell-based, Xanthomonas alfalfae subsp. citrumelonis; details: Xanthomonas alfalfae; dialysis time N/A; relative to streptomycin concentration
Method: The antimicrobial efficacy of ZnNP-Strep was also studied after dialysis of the particles. The particles were dialyzed to remove any unbound streptomycin and simulate the effect of rainfall on the particles in field conditions. […] The particles were dialyzed for 0, 1, 3, and 12 h and the remaining streptomycin loaded on the particles for each timepoint was quantified by LCMS by diluting the particles with 1% HCl and analyzing them with the previously described method. After streptomycin quantification the particles were diluted to 500 ppm streptomycin and their antimicrobial efficacy was assessed via MIC assay described above. The minimum bactericidal concentration (MBC) of the particles was also assessed by performing colony forming unit (CFU) plating. After 24 h incubation of bacteria with the samples, 100 μL of the treated bacteria was then transferred to nutrient agar plates. They were then spread dry using sterile spreaders (Fisher Scientific) and incubated for 48 h to check for bacterial growth at each concentration tested.

X. alfalfae [4] = assay: MIC of ZnNP-Strep after dialysis (simulated rainfall); type: cell-based, Xanthomonas alfalfae subsp. citrumelonis; details: Xanthomonas alfalfae; dialysis time N/A; relative to streptomycin concentration
Method: as §1
The antimicrobial efficacy of ZnNP-Strep was also studied after dialysis of the particles. […] The particles were dialyzed for 0, 1, 3, and 12 h and the remaining streptomycin loaded on the particles for each timepoint was quantified by LCMS by diluting the particles with 1% HCl and analyzing them with the previously described method. After streptomycin quantification the particles were diluted to 500 ppm streptomycin and their antimicrobial efficacy was assessed via MIC assay described above. The minimum bactericidal concentration (MBC) of the particles was also assessed by performing colony forming unit (CFU) plating. […]

[5] = 24 h incubation, concentration active
[6] = highest concentration tested, 1000 μg/mL

Q: For `O=S(=O)([O-])[O-].[Cu+2]` [Copper sulfate, copper sulfate], which “Phytotoxicity, Tomato sp.” value ([1]; 1000 μg/mL Cu) is on record?
A: +++ (above 50% was rated as severe (+++))

Q: What about the “signs of phytotoxicity (visual)” value ([1]; 72 hrs after foliar application) of the same compound?
A: many brown spots

Q: For `CC(=O)N[C@@H](CS)C(=O)O` [NAC, N-acetylcysteine], which “P. syringae (MIC)” value (P. syringae; [5]) is on record?
A: No inhibition

Q: What about the growth inhibitory effect (P. syringae; [6]) of the same compound?
A: no growth inhibitory effect

Q: What about the “X. alfalfae (MIC)” value (X. alfalfae [2]; [5]) of the same compound?
A: No inhibition

Q: What about the growth inhibitory effect (X. alfalfae [2]; [6]) of the same compound?
A: no growth inhibitory effect

Q: And the “E. coli (MIC)” value (E. coli; [5])?
A: No inhibition

Q: And the growth inhibitory effect (E. coli; [6])?
A: no growth inhibitory effect

Q: What does the source list for `[H]/N=C(/N)N[C@H]1[C@H](O)[C@@H](O)[C@H](O[C@@H]2O[C@@H](C)[C@](O)(C=O)[C@H]2O[C@@H]2O[C@@H](CO)[C@H](O)[C@@H](O)[C@@H]2NC)[C@@H](N/C(N)=N\[H])[C@@H]1O` [Streptomycin sulfate, streptomycin sulfate]?
A: MIC (P. syringae; Pseudomonas syringae, 24 h incubation, concentration active): 2 µg/mL; MIC (X. alfalfae [2]; Xanthomonas alfalfae, 24 h incubation, concentration active): 2 µg/mL; Phytotoxicity, Tomato sp. ([1]; 1000 μg/mL Strep): −; MBC (X. alfalfae [3]): 16 µg/mL; MIC (X. alfalfae [4]): 1 µg/mL; MIC (E. coli; Escherichia coli, 24 h incubation, concentration active): 6 µg/mL
